Among the data in patent US10428044B2, “3-amino-1,5,6,7-tetrahydro-4H-indol-4-ones” (Bayer Pharma Aktiengesellschaft, priority 2014, dated 2019) are IC50 values, retold here.

Chain of (recombinant) catalytic domain of human Bub1 (amino acids 704-1085) (O43683 704-1085): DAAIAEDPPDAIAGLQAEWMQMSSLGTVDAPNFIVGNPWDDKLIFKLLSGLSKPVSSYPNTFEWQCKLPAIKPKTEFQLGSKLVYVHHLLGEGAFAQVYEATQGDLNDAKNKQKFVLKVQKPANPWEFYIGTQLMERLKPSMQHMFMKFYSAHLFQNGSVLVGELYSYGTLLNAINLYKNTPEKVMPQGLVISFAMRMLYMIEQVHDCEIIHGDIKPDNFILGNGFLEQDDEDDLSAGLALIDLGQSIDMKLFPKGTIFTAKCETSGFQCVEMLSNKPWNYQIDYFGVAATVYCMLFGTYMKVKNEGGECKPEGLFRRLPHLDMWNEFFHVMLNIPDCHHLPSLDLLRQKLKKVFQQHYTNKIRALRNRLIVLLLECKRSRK

This assay addresses (recombinant) catalytic domain of human Bub1 (amino acids 704-1085) (Homo sapiens (Human), UniProt O43683). Briefly: Bub1 kinase assay (TR-FRET). Type of assay: biochemical. The following applies: ATP 10 μM final, peptide substrate 1 μM final, 60 min at 22° C., read-out: Biological Assay: Bub1 kinase assay median IC50. The method, boiled down:
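Readout was TR-FRET between a Eu-labeled antibody complex recognizing phosphoserine and streptavidin-XL665 on the biotinylated peptide, after EDTA stop and 1 h at 22° C. The kinase reaction ran for 60 min at 22° C. Values are means or medians of repeat tests, from 4-parameter fits normalized to enzyme-free and inhibitor-free controls.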
For orientation: TR-FRET usually uses a lanthanide donor and a delayed reading to cut background.
Regarding `CC1(C)CC(=O)c2c([nH]c(-c3ccncc3)c2Nc2ccc(F)c(OC(F)(F)F)c2)C1` [Example 148, 3-{[4-fluoro-3-(trifluoromethoxy)phenyl]amino}-6,6-dimethyl-2-(pyridin-4-yl)-1,5,6,7-tetrahydro-4H-indol-4-one], the 50% inhibitory concentration (IC50) (commonly the concentration that inhibits the measured activity by half) worked out at 479 nM.
In the case of `CC1(C)CC(=O)c2c([nH]c(-c3ccncc3)c2Nc2cccc(-c3ccsc3)c2)C1` [Example 418, 6,6-dimethyl-2-(pyridin-4-yl)-3-{[3-(thiophen-3-yl)phenyl]amino}-1,5,6,7-tetrahydro-4H-indol-4-one], the IC50 worked out at 26.6 nM.
The result for `CC1(C)CC(=O)c2c([nH]c(-c3ccncc3)c2Nc2cc(Cl)ccc2Cl)C1` [Example 78, 3-[(2,5-dichlorophenyl)amino]-6,6-dimethyl-2-(pyridin-4-yl)-1,5,6,7-tetrahydro-4H-indol-4-one] reads 6950 nM; that for `CC1(C)CC(=O)c2c([nH]c(-c3ccnc(NC(=O)c4ccc(F)c(F)c4)c3)c2Nc2ccccc2)C1` [Example 473, N-{4-[6,6-dimethyl-4-oxo-3-(phenylamino)-4,5,6,7-tetrahydro-1H-indol-2-yl]pyridin-2-yl}-3,4-difluorobenzamide], 10.3 nM; that for `CC1(C)CC(=O)c2c([nH]c(-c3ccncc3)c2Nc2ccccc2F)C1` [Example 60, 3-[(2-fluorophenyl)amino]-6,6-dimethyl-2-(pyridin-4-yl)-1,5,6,7-tetrahydro-4H-indol-4-one], 95.2 nM.
Take `O=C1CCCc2[nH]c(-c3ccnc(NCCC(F)(F)F)c3)c(Nc3ccccc3)c21` [Example 365, 3-(phenylamino)-2-{2-[(3,3,3-trifluoropropyl)amino]pyridin-4-yl}-1,5,6,7-tetrahydro-4H-indol-4-one]: the half-maximal inhibitory concentration (IC50) came out at 604 nM.
For `O=C(COc1ccon1)Nc1cc(-c2[nH]c3c(c2Nc2ccccc2)C(=O)CCC3)ccn1` [Example 348, 2-(1,2-oxazol-3-yloxy)-N-{4-[4-oxo-3-(phenylamino)-4,5,6,7-tetrahydro-1H-indol-2-yl]pyridin-2-yl}acetamide], the IC50 amounted to 10.2 nM.
With `O=C1CC(C(F)(F)F)Cc2[nH]c(-c3ccncc3)c(Nc3ccccc3)c21` (centres unmarked) [Example 20, 3-(phenylamino)-2-(pyridin-4-yl)-6-(trifluoromethyl)-1,5,6,7-tetrahydro-4H-indol-4-one], the concentration for half-maximal inhibition (IC50) was 9.33 nM.
Consider `O=C(COc1ccc(F)cc1)Nc1cc(-c2[nH]c3c(c2Nc2ccccc2)C(=O)CCC3)ccn1` [Example 462, N-[4-(3-anilino-4-oxo-4,5,6,7-tetrahydro-1H-indol-2-yl)pyridin-2-yl]-2-(4-fluorophenoxy)acetamide], for which the IC50 stood at 18.2 nM.
Regarding `CCOc1ccccc1Nc1c(-c2ccncc2)[nH]c2c1C(=O)CC(C)(C)C2` [Example 128, 3-[(2-ethoxyphenyl)amino]-6,6-dimethyl-2-(pyridin-4-yl)-1,5,6,7-tetrahydro-4H-indol-4-one], the half-inhibitory concentration (IC50) was 576 nM.
With `CN(C)CC(=O)Nc1cc(-c2[nH]c3c(c2Nc2ccccc2)C(=O)CCC3)ccn1` [Example 307, N^2,N^2;-dimethyl-N-{4-[4-oxo-3-(phenylamino)-4,5,6,7-tetrahydro-1H-indol-2-yl]pyridin-2-yl}glycinamide] the figure was 208 nM; with `O=C1CCCc2[nH]c(-c3ccnc(NC(=S)NC4CC4)c3)c(Nc3ccccc3)c21` [Example 395, 1-cyclopropyl-3-{4-[4-oxo-3-(phenylamino)-4,5,6,7-tetrahydro-1H-indol-2-yl]pyridin-2-yl}thiourea], 213 nM; with `CC(C)c1cccc(Nc2c(-c3ccncc3)[nH]c3c2C(=O)CC(C)(C)C3)c1` [Example 85, 6,6-dimethyl-3-{[3-(propan-2-yl)phenyl]amino}-2-(pyridin-4-yl)-1,5,6,7-tetrahydro-4H-indol-4-one], 73.5 nM.
With `CC1(C)CC(=O)c2c([nH]c(-c3ccncc3)c2Nc2cccc(Cl)c2)C1` [Example 4, 6,6-dimethyl-3-[(3-chlorophenyl)amino]-2-(pyridin-4-yl)-1,5,6,7-tetrahydro-4H-indol-4-one] the figure was 15.9 nM.
